Data set [1] addresses T1, SHP1 (Homo sapiens, UniProt P29350).
T1 construct: purchased Sigma-Aldrich
Description: Inhibition of human recombinant tyrosine phosphatase SHP1 (DiFMUP fluorescence). Format: biochemical. The following applies: for Inhibition of SHP1, percentage of inhibition of the control: 1 µM, control solvent only, SD did not exceed 6%. Summed up: (§1)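 Human recombinant phosphatases (SHP1 400 ng/mL, SHP2 50 ng/mL, LAR 5 ng/mL final) were pre-incubated 10 min with compound in 25 mM MOPS pH 7.0, 50 mM NaCl, 1 mM DTT, 0.05% Tween-20. DiFMUP (0.1 mM final) was added for 20 min at 23 °C and fluorescence read at 355/560 nm. Screening used 1 µM compound (% inhibition vs vehicle); IC50 also reported.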

Data set [2] has as its target T2, LAR (Homo sapiens, UniProt P10586).
T2 sequence (P10586 1352-1607 limits assumed): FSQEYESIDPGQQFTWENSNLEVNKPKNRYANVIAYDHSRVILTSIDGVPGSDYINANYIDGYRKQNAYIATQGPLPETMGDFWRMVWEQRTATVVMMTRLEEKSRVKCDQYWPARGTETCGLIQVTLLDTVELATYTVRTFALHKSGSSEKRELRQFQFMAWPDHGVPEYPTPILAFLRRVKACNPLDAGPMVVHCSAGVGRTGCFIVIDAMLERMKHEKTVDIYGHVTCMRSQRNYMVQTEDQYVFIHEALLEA
Description: Inhibition of human recombinant tyrosine phosphatase LAR (DiFMUP fluorescence). It is filed as biochemical. The following applies: for Inhibition of LAR, percentage of inhibition of the control: 1 µM, control solvent only, SD did not exceed 6%. Put shortly: as §1

The subject of data set [3] is adipocytes 3T3-L1. Also on record: method as in doi:10.1016/j.poly.2020.114589. The following applies: 50 µM; previously published by the authors; cited from earlier work.
Data set [4] deals with T3, PTP1B (Homo sapiens, UniProt P18031).
T3 construct: purchased Sigma-Aldrich
T3 sequence (P18031 1-435): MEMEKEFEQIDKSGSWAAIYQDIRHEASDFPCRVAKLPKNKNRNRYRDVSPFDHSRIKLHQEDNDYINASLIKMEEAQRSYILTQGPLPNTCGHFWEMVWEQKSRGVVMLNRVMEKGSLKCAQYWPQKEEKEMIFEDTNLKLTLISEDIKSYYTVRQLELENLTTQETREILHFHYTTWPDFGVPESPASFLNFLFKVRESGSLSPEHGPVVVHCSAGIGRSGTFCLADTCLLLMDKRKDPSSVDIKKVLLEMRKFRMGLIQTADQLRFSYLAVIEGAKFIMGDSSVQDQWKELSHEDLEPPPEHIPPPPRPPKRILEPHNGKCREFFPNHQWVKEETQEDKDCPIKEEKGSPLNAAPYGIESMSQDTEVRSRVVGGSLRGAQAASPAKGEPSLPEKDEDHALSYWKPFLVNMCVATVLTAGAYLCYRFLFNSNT
In words: Inhibition of human recombinant tyrosine phosphatase PTP1B (DiFMUP fluorescence). It is filed as biochemical. The following applies: for Inhibition of PTP1B, percentage of inhibition of the control: 1 µM, control solvent only, SD did not exceed 6%. Put shortly: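 Human recombinant PTP1B (final 50 ng/mL) in buffer of 25 mM MOPS, 50 mM NaCl, 1 mM DTT and 0.05% Tween-20 (pH 7.0) was dispensed onto test compound in black 384-well plates. After 10 min, DiFMUP was added to 0.1 mM. Plates were incubated 20 min at 23 °C and fluorescence read (ex 355, em 560 nm). Assays were run in triplicate, with inhibition relative to enzyme-plus-vehicle control and IC50 fitted in GraphPad Prism.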

The target in data set [5] is T4, SHP2 (Homo sapiens, UniProt Q06124).
T4 construct: purchased Sigma-Aldrich
T4 sequence (Q06124 1-593): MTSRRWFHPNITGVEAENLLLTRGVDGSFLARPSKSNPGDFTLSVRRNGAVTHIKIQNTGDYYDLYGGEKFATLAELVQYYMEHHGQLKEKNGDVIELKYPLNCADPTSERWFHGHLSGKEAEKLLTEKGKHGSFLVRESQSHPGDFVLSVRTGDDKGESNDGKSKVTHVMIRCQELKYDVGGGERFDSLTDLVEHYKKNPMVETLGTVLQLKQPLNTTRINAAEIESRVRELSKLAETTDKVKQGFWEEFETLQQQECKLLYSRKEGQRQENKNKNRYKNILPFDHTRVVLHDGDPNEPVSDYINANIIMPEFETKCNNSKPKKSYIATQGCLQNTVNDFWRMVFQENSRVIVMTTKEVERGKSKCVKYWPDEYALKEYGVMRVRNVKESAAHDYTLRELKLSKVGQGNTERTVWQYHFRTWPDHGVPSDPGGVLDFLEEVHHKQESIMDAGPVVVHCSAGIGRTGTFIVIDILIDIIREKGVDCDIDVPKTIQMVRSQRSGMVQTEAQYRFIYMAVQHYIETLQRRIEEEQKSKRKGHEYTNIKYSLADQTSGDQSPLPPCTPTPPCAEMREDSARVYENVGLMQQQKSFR
Description: Inhibition of human recombinant tyrosine phosphatase SHP2 (DiFMUP fluorescence). The following applies: for Inhibition of SHP2, percentage of inhibition of the control: 1 µM, control solvent only, SD did not exceed 6%. Format: biochemical. Summed up:
as §1

The target in data set [6] is PP2A (Homo sapiens, UniProt P67775). Description: Inhibition of human recombinant non-tyrosine phosphatase PP2A (DiFMUP). Format: biochemical. How it is done:
(§2) For the inhibition assay of non-tyrosine phosphatases, human recombinant proteins were used (Sigma-Aldrich). The reactions were performed in black opaque 384-well microplates (PerkinElmer). To the solution of the tested complexes, an equal volume of a test solution of phosphatase was added. CDC25A were diluted in reaction buffer to the final concentration of 400 ng/mL as for tyrosine phosphatases (described in the section above), and PPA2 (final 0.5 U/mL) was diluted in 50 mM Tris-HCl, 0.05% Tween-20, and 125 µg/mL protease-free bovine serum albumin (pH 7.0). These solutions were dispensed using an automated injector. After 10 min, a solution of phosphate 6,8-difluoro-4-methyl (DiFMUP; Thermo Fisher Scientific) was added for the PPA2 sample until the final concentration 0.1 mM. For CDC25A samples, 3-O-methylfluorescein phosphate for the final concentration of 0.2 mM was added. Samples were incubated for 180 min at 23 °C, and then the measurements of fluorescence intensity (excitation 355 and emission 560 nm) were performed on a multifunctional plate reader POLARstar Omega (BMG Labtech). Assays were performed in triplicate. The results were expressed as percent of inhibition of untreated control (enzyme with vehicle solvent only).

Data set [7] relates to hepatocytes HepG2. The following applies: 50 µM.
Description: Experiments on the inhibition of hepatic gluconeogenesis in HepG2 hepatocytes by the vanadium complexes were carried out based on a previous description with some modifications [143]. Hepatocytes HepG2 in culture medium (as indicated above) were seeded on a half-area 96 microplate at the amount of 50,000 per well. After 16–24 h, cells were washed with PBS three times and one time with experimental medium (DMEM without glucose with 0.1% BSA, 2 µM L-glutamine, 15 mM HEPES, 1 mM sodium pyruvate, 10 mM calcium lactate, 100 IU/mL penicillin, and 100 mg/mL streptomycin). Cells were incubated in this medium for 3 h at 37 °C in 5% CO2, and the next medium was changed to the experimental medium with additional gluconeogenesis inductors: 10 µM dexamethasone, 100 µM 8-bromoadenosine 3′,5′-cyclic monophosphate sodium salt (8-Br-cAMP), and 500 µM 3-isobutyl-1-methylxanthine (IBMX). After adding the test compounds, the cells were incubated for 3 h at 37 °C in a 5% CO2 microplate, and then the supernatant was collected for glucose assay (as described in Section 4.2.6). Glucose synthesis was calculated as glucose concentration differences between experimental medium without cells and medium with cells after incubation with the tested compound. The final results were expressed as the percent of inhibition of glucose synthesis by cells incubated with solvent only.
The target of data set [8] is T5, CDC25A (Homo sapiens, UniProt P30304).
T5 construct: purchased Sigma-Aldrich
T5 sequence (P30304 1-524): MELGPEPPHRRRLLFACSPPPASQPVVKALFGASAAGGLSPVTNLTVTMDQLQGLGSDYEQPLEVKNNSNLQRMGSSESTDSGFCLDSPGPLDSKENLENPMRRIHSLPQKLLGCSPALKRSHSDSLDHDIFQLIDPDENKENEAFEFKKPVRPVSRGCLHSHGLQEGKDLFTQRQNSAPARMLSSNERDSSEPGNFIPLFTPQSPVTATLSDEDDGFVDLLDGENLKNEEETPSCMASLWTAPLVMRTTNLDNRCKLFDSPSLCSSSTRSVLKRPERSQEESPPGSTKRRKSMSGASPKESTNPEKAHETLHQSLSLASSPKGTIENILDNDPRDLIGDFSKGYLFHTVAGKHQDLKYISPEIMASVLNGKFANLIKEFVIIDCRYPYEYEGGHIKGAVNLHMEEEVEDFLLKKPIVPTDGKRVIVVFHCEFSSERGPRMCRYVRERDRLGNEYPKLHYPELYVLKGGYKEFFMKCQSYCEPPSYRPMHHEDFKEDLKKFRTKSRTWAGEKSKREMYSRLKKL
Description: Inhibition of human recombinant non-tyrosine phosphatase CDC25A (3-O-methylfluorescein phosphate). Format: biochemical. The protocol: as §2

For data set [9], the system named is myocytes C2C12. Also on record: method as in doi:10.1016/j.poly.2020.114589. The following applies: 50 µM; previously published by the authors; cited from earlier work.
Data set [10] concerns hepatocytes HepG2. In words: Transport of [14C]-deoxy-D-glucose into insulin-resistant hepatocytes (TNF or oleic acid). It is filed as cell-based, human. The following applies: 10 µM; p ≤ 0.05. How it is done:
After 24 h incubation, the tested complexes were added. After 2 h incubation at 37 °C in 5% CO2, the medium was changed to low-glucose medium (1000 mg/L), and the tested complexes were added again, with further incubation for 4 h being conducted.
For cells proceeded as above, 2-deoxy-D-[U-14C]-glucose (250–350 mCi/mmol, NEC720A, PerkinElmer) solution in KRB with a total activity of 0.03 mCi was added to each well. […] Non-specific radioactivity was subtracted from each result (cpm). Two independent experiments with triplicates were conducted.
Next, the compounds in fresh medium were added, further incubation was carried out for 24 h, and the scintillation proximity assay for the uptake of radiolabeled 2-deoxy-D-[U-14C]-glucose was conducted as described in the section above.

In data set [11] the test system is hepatocytes HepG2. Description: Inhibition of hepatic gluconeogenesis (glucose synthesis). The following applies: known inhibitors of gluconeogenesis; concentration not given.
In data set [12] the test system is hepatocytes HepG2. The following applies: 1 mM.
Description: Hepatocytes HepG2, myocytes C2C12 (after 8 days differentiation), and adipocytes 3T3-L1 (after 11 days of differentiation) were cultured and maintained as described in the section above but pleated on a ScintiPlate TC 96-well microplate coated with a solid-phase scintillator (PerkinElmer). Hepatocytes and myocytes were washed, and culture medium was changed for medium with 0.5% BSA instead of serum. After 24 h incubation, the tested complexes were added. After 2 h incubation at 37 °C in 5% CO2, the medium was changed to low-glucose medium (1000 mg/L), and the tested complexes were added again, with further incubation for 4 h being conducted. […] Wortmannin at a final concentration of 200 nM (Sigma-Aldrich ) was used as a negative control. After that, cells were washed three times with cold KRB, and cytochalasin B (10 mM final) was added for several wells as a ‘‘no uptake” control, which proceeded as shown below.
For cells proceeded as above, 2-deoxy-D-[U-14C]-glucose (250–350 mCi/mmol, NEC720A, PerkinElmer) solution in KRB with a total activity of 0.03 mCi was added to each well. […] The radioactivity of samples was measured in a scintillation counter, MicroBeta Trilux 1450 (PerkinElmer). Non-specific radioactivity was subtracted from each result (cpm). […] The final results were expressed as percent of the control that contained solvent only instead of the tested compound.
A short description of data set [13]: Viability of myocytes C2C12 after 24 h incubation (resazurin-based reagent). The following applies: mouse, C2C12 myocytes. The protocol: Simultaneously with glucose consumption tests, the viability of myocytes C2C12 was examined due to their prolonged 24 h incubation with vanadium complexes.
Prolonged incubation of the cells with vanadium complexes, as was the case during the study of the effect on glucose consumption, more closely corresponds to the actual conditions of clinical use, also allowing for the identification of possible cytotoxic effects. […] A Resazurin-based reagent is reduced proportionally to the metabolic activity of cells as a result of the transference of electrons from NADPH+H^+, the amount of which strictly depends on glucose metabolism.
A general note: Resazurin is reduced to fluorescent resorufin, in cell work by metabolically active cells.

T1 sequence (P29350 whole entry): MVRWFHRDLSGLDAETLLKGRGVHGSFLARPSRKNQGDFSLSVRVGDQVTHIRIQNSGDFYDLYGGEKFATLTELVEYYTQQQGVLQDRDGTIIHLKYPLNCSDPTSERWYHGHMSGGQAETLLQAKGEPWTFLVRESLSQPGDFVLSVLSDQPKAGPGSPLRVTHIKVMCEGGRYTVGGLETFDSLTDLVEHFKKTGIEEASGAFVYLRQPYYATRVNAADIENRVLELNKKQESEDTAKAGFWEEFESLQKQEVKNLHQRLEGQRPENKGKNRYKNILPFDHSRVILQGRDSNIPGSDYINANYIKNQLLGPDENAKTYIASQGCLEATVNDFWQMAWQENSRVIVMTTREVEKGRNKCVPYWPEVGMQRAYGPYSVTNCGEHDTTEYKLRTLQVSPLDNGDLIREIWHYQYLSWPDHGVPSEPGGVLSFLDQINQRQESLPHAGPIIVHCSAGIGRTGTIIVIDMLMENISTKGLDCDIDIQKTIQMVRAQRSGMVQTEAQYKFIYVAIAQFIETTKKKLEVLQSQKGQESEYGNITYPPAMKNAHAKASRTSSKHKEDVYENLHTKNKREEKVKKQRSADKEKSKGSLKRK
PP2A, sequence (P67775 whole entry): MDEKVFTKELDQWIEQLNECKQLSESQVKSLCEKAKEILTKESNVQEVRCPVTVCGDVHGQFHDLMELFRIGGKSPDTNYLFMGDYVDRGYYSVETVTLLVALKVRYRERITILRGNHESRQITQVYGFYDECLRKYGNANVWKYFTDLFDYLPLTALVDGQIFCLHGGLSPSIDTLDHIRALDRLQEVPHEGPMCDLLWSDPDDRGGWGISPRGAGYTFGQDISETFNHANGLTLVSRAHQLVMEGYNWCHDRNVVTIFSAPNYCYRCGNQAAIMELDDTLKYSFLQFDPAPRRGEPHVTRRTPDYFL

Take `O=C(NN=Cc1cc(Br)ccc1[O][V]1[O]C(c2ccccc2O)=NN=Cc2cc(Br)ccc2[O]1)c1ccccc1O` [VC029, [V(L7)(HL7)]]: the “Inhibition of SHP1, percentage of inhibition of the control” value in data set [1] is reported as 62%. The “Inhibition of LAR, percentage of inhibition of the control” value in data set [2] is 25%. In addition, the “Transport of [14C]-deoxy-D-glucose into 3T3-L1 adipocytes, % of control” value in data set [3] was “statistically significant activity”. The “Inhibition of PTP1B, percentage of inhibition of the control” value in [4] was found to be 31%. For the same compound, the “Inhibition of SHP2, percentage of inhibition of the control” value in data set [5] is 68%.

For the compound `O=C(NN=Cc1cc(Br)ccc1[O-])c1ccc([N+](=O)[O-])cc1.O=[N+]([O-])c1ccc(C([O-])=NN=Cc2cc(Br)ccc2[O-])cc1.[V+3]` [VC068, [V(L13)(HL13)]], the IC50 is 517 nM in [1], 619 nM in data set [2], 2030 nM in data set [4] (read-out: IC50 PTP1B) and 235 nM in [5]. Also, the “Inhibition of SHP1, percentage of inhibition of the control” value in [1] came to 70%. Besides, the “Log IC50 ± SD SHP1” value in data set [1] (logarithm of IC50) is −6.29 ± 0.02. Besides, the “Inhibition of LAR, percentage of inhibition of the control” value in data set [2] is on record as 33%. Moreover, the figures for the “Inhibition of PP2A, percentage inhibition of control ± SD” value in [6] (1 µM) and in data set [6] (10 µM) were 26 ± 12% and 55 ± 15%, respectively. In [4], the “Inhibition of PTP1B, percentage of inhibition of the control” value was determined as 40%. Moreover, the “Log IC50 ± SD PTP1B” value in [4] (logarithm of IC50) was −5.69 ± 0.02. The “Inhibition of glucose synthesis (gluconeogenesis) in hepatocytes” value in [7] is listed as 79 ± 18%. In addition, the “Inhibition of CDC25A, percentage inhibition of control ± SD” value in data set [8] (1 µM) stood at 54 ± 3%; in data set [8] (10 µM) it was 62 ± 2%. In addition, the “Transport of [14C]-deoxy-D-glucose into C2C12 myocytes, % of the control” value in data set [9] was 218 ± 10 % of control. Further, in data set [5], the “Inhibition of SHP2, percentage of inhibition of the control” value worked out at 74%. Further, the “Reversal of decreased [14C]-deoxy-D-glucose transport, insulin resistance induced by TNF” value in data set [10] is on record as “reversed the decrease”.

As to `CN(C)C(=N)N=C(N)N` [metformin], the “Inhibition of glucose synthesis by hepatocytes, experimental control compounds” value in data set [11] is given as “showed inhibition of glucose synthesis”. For the same compound, the “Potentiation of [14C]-deoxy-D-glucose transport to hyperinsulinemia-induced insulin-resistant hepatocytes” value in [12] is on record as “did not potentiate”.

In the case of `CN(CCOc1ccc(CC2SC(=O)NC2=O)cc1)c1ccccn1` (stereo not shown) [rosiglitazone, reference compound], the viability at 24 h, 50 µM in [13] came to 120 ± 7%.

A word on the IC50: it is the concentration at which inhibition is half-maximal. The term viability denotes a read-out of living cells in per cent, often relative to untreated cells.
